# Values quoted from earlier work in US5304296A, “Glass pH electrodes” (National Power PLC, priority 1990, dated 1994).
smiles,measurement,value
"NC(=O)CN(CC(=O)O)CC(=O)O [ADA, N-(2-acetamido)iminodiacetic acid]",pKa at 20° C.,6.62
